In BindingDB's records for doi:10.1074/jbc.M112.399303 (Universidade Federal do Rio de Janeiro, 2014):

Key:
Test in all cases: Diffusion Ordered Spectroscopy (DOSY)
Details in all cases: 11 °C
[1] = target: T1, Trans-sialidase [3-643,Y342H] (Trypanosoma cruzi, UniProt Q9BHJ5, Y342H)
T1 construct: 3-643
Protocol: (§1) Solutions of TS, TSY342H, and TSD247A in 20 mM Tris-HCl were exchanged with deuterated PBS using four cycles of concentration with Amicon Ultra (50,000 nominal molecular weight limit; Millipore) and diluted in deuterated PBS. One hundred microliters of 0.1 mM protein solution (TcTSs or BSA) was titrated with the sialoside (0.2, 0.4, 0.6, 0.8, 1.0, 1.2, 1.6, and 2.0 mM) or lacto-N-neotetraose (0.1, 0.2, 0.3, 0.4, 0.5, 0.6, 0.7, and 0.9mM) as a negative control. The solution containing 0.1 mM protein plus sialoside was further titrated with Me-Lac (0.1, 0.2, 0.3, 0.4, 0.5, 0.6, 0.7, and 0.9 mM) in Shigemi tubes. NMR spectra were obtained at a probe temperature of 293 K on a Bruker DMX 600-MHz spectrometer equipped with a 5-mm self-shielded gradient triple resonance probe. All DOSY experiments were performed with a stimulated echo using bipolar gradient pulses for diffusion, one spoil gradient, and the 3-9-19 pulse sequence with gradients for water suppression according to the Bruker pulse program stebpgp1s19. The gradient duration was set to δ = 10 ms (protein-only experiments) and 20ms (protein⋅carbohydrate complexes experiments), and the diffusion time was set to Δ = 40 ms. Gradient strength was linearly varied in 16 steps from 0.6 to 6.7 G/cm. For each of the 16 gradient amplitudes, eight transients of 192 complex data points were acquired to a 10.0-ppm spectral width. The pulse repetition delay between each scan was 3 s.

[2] = target: T2, Trans-sialidase [3-643,D247A] (Trypanosoma cruzi, UniProt Q9BHJ5, D247A)
T2 construct: 3-643
Protocol: as §1

Trans-sialidase [3-643] = target: T3, Trans-sialidase [3-643] (Trypanosoma cruzi, UniProt Q9BHJ5)
T3 construct: 3-643
T3 sequence (Q9BHJ5 whole entry): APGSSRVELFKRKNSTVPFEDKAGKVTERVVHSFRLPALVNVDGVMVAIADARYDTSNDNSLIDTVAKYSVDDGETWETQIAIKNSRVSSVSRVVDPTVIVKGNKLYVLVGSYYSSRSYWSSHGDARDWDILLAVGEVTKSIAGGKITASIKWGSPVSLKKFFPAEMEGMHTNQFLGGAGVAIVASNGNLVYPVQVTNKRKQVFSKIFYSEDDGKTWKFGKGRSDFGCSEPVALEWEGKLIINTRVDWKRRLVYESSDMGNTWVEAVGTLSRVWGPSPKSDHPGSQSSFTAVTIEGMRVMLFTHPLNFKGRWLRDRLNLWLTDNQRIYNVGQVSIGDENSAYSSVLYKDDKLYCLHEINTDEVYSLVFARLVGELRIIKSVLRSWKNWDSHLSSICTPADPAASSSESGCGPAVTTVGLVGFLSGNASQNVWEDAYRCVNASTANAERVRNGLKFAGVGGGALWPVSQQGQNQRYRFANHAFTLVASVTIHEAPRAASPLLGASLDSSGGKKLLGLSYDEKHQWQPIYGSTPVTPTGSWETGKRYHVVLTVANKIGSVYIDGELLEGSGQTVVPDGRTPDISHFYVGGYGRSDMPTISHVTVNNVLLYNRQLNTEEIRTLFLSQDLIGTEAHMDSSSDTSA
Protocol: as §1

T1 sequence (Q9BHJ5 3-643 Y344H): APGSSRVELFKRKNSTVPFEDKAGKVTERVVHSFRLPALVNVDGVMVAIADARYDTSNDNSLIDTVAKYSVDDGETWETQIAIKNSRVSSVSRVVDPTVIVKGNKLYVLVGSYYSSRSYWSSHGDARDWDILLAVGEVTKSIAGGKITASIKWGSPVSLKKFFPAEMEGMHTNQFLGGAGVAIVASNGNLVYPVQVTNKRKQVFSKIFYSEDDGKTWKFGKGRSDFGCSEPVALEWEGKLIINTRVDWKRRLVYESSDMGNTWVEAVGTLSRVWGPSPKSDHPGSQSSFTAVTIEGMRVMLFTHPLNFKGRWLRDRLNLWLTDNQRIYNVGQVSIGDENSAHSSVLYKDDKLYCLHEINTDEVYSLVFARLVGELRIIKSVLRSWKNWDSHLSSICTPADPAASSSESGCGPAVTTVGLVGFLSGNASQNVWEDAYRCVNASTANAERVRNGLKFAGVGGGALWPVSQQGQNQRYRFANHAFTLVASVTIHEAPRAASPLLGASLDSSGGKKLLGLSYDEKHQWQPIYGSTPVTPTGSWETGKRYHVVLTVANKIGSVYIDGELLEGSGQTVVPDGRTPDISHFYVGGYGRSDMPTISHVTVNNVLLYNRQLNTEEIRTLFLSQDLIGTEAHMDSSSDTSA
T2 sequence (Q9BHJ5 3-643 D249A): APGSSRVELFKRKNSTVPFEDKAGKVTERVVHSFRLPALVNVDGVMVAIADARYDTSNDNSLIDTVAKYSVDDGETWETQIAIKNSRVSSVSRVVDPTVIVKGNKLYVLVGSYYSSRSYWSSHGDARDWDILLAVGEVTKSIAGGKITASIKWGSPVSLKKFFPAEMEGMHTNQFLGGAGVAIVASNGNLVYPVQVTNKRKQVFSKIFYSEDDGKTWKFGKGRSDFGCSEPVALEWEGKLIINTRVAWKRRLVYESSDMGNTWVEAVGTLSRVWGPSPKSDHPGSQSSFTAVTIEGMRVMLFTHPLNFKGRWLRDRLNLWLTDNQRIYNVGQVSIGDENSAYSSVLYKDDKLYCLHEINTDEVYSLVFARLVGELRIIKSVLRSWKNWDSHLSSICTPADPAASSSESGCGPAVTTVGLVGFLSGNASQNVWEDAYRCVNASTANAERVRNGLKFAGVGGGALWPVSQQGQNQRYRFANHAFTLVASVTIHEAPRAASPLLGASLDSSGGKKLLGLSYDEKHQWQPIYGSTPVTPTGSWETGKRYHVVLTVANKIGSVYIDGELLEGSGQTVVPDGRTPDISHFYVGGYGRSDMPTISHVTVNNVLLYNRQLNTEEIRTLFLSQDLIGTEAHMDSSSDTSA

SMILES | Kd [1] [µM] | Kd [2] [µM] | Kd (Trans-sialidase [3-643]) [µM]
CC(=O)NC1C(O)CC(OC2C(O)C(CO)OC(OC3C(CO)OC(O)C(O)C3O)C2O)(C(=O)O)OC1[C@H](O)[C@H](O)CO (stereo partly drawn) [α2,3'-sialyllactose] | 234 | 107 | –
CO[C@@H]1O[C@H](CO)[C@@H](O[C@@H]2O[C@H](CO)[C@H](O)[C@H](O)[C@H]2O)[C@H](O)[C@H]1O [CHEBI:610092] | 52 | – | 15
COC1OC(CO)C(O)C(SC2(C(=O)O)CC(O)C(NC(C)=O)C([C@H](O)[C@H](O)CO)O2)C1O (stereo not given in full) [NeuSGal] | – | – | 456
